Data from patent US12552938B2, “Deuterated fluorophores” (HOWARD HUGHES MEDICAL INSTITUTE, priority 2018, dated 2026).
Entries after “also recorded” stand apart in the source; their conditions may differ. Where a name gives a salt, the structure may show the parent alone. Values belong to the molecule of their own block, whether it stands above or below them.

Tests used:
[1] = spectral properties of free dyes (absorbance, fluorescence emission, ε, Φ, intrinsic brightness); assay type: physicochemical; details: 10 mM HEPES pH 7.3; for extinction coefficient (ε) compared to nondeuterated parent / fluorescence quantum yield (Φ) compared to nondeuterated parent / intrinsic brightness (ε×Φ): free dye; for intrinsic brightness (ε×Φ): in vitro
[2] = photobleaching of free dyes in vitro; assay type: physicochemical; details: for photobleaching / in vitro photostability compared to nondeuterated parent: free dye, 10 mM HEPES pH 7.3; for blue-shift of fluorescence emission during photobleaching due to dealkylation: spectra taken periodically during photobleaching; for chromostability during bleaching: compared to nondeuterated compounds 15 and 17
[3] = relative singlet oxygen quantum yield of free dyes; assay type: physicochemical; details: free dye
HaloTag protein [4] = experiment: fluorescence quantum yield of HaloTag-bound ligands in vitro; assay type: physicochemical; details: attached to HaloTag protein
Procedure: These dyes were then tested as protein conjugates in vitro and in living cells. […] Both J ligands could label HaloTag-histone H2B fusions in living cells (FIG. 24, FIG. 25).

HaloTag protein [5] = experiment: relative singlet oxygen quantum yield of HaloTag-bound ligands; assay type: physicochemical
histone H2B-HaloTag = experiment: fluorescence lifetime in live cells measured using FLIM; assay type: cell-based; details: histone H2B-HaloTag-bound
[6] = system: histone H2B-HaloTag fusion; experiment: labeling of cells expressing histone H2B-HaloTag fusion and imaging; assay type: cell-based, mammalian cell; details: 10 pM, 30 min, washed 30 minutes
Sox2-HaloTag fusions = experiment: live-cell single-particle tracking of HaloTag ligands; assay type: cell-based; details: HaloTag conjugates; for brightness in cells (photons/s): equivalent imaging conditions
[7] = deuterated vs nondeuterated TMR

- absorption and emission maxima / spectral shape compared to nondeuterated parent [1]: no change in spectral shape
- extinction coefficient (ε) compared to nondeuterated parent [1]: increases
- fluorescence quantum yield (Φ) compared to nondeuterated parent [1]: increases
- chromostability during bleaching [2]: higher
SMILES: [2H]C1([2H])N(c2ccc3c(-c4ccccc4C(=O)[O-])c4ccc(=[N+]5C([2H])([2H])C([2H])([2H])C([2H])([2H])C([2H])([2H])C5([2H])[2H])cc-4oc3c2)C([2H])([2H])C([2H])([2H])C([2H])([2H])C1([2H])[2H] [Compound 20, 2-(3,6-Bis(piperidin-1-yl-d10)xanthylium-9-yl)benzoate]

- absorption and emission maxima / spectral shape compared to nondeuterated parent [1]: no change in spectral shape
- extinction coefficient (ε) compared to nondeuterated parent [1]: increases
- fluorescence quantum yield (Φ) compared to nondeuterated parent [1]: increases
SMILES: [2H]C1([2H])OC([2H])([2H])C([2H])([2H])N(c2ccc3c(-c4ccccc4C(=O)[O-])c4ccc(=[N+]5C([2H])([2H])C([2H])([2H])OC([2H])([2H])C5([2H])[2H])cc-4oc3c2)C1([2H])[2H] [Compound 22, 2-(3,6-Bis(morpholino-d8)xanthylium-9-yl)benzoate]

- extinction coefficient (ε) compared to nondeuterated parent [1]: substantial increases
- fluorescence quantum yield (Φ) compared to nondeuterated parent [1]: substantial increases
SMILES: [2H]C1([2H])N(c2ccc3c(c2)C(C)(C)C2=CC(=[N+]4C([2H])([2H])C([2H])([2H])C4([2H])[2H])C=CC2=C3c2ccccc2C(=O)[O-])C([2H])([2H])C1([2H])[2H] [Compound 27, 2-(3,6-Bis(azetidin-1-yl-d6)-10,10-dimethylanthracen-9-ylium-9(10H)-yl)benzoate]

- extinction coefficient (ε) compared to nondeuterated parent [1]: substantial increases
- fluorescence quantum yield (Φ) compared to nondeuterated parent [1]: substantial increases
SMILES: [2H]C1([2H])N(c2ccc3c(c2)C(C)(C)C2=CC(=[N+]4C([2H])([2H])C([2H])([2H])C([2H])([2H])C4([2H])[2H])C=CC2=C3c2ccccc2C(=O)[O-])C([2H])([2H])C([2H])([2H])C1([2H])[2H] [Compound 29, 2-(10,10-Dimethyl-3,6-bis(pyrrolidin-1-yl-d8)anthracen-9-ylium-9(10H)-yl)benzoate]

- extinction coefficient (ε) compared to nondeuterated parent [1]: similar
- fluorescence quantum yield (Φ) compared to nondeuterated parent [1]: small decrease
SMILES: [2H]C1([2H])N(c2ccc3c(C)cc(=O)oc3c2)C([2H])([2H])C1([2H])[2H] [Compound 40, 7-(Azetidin-1-yl-d6)-4-methyl-2H-chromen-2-one]

- extinction coefficient (ε) compared to nondeuterated parent [1]: equivalent
- fluorescence quantum yield (Φ) compared to nondeuterated parent [1]: significantly higher
SMILES: [2H]C1([2H])N(c2ccc3c(C)cc(=O)oc3c2)C([2H])([2H])C([2H])([2H])C1([2H])[2H] [Compound 42, 4-Methyl-7-(pyrrolidin-1-yl-d8)-2H-chromen-2-one]

More lines, now with the values behind:

SMILES: [2H]C([2H])([2H])N(c1ccc2c(-c3ccccc3C(=O)[O-])c3ccc(=[N+](C([2H])([2H])[2H])C([2H])([2H])[2H])cc-3oc2c1)C([2H])([2H])[2H] [Compound 14, 2-(3,6-Bis(bis(methyl-d3)amino)xanthylium-9-yl)benzoate]
- absorption and emission maxima / spectral shape compared to nondeuterated parent [1]: remarkably similar
- increase in extinction coefficient at λmax (ε) compared to 1 [1, 7]: ~20%
- increase in fluorescence quantum yield (Φ) compared to 1 [1, 7]: ~20%
- photobleaching / in vitro photostability compared to nondeuterated parent [2]: slower rate of photobleaching

SMILES: O=C1OC2(c3ccc(N4CCC4)cc3Oc3cc(N4CCC4)ccc32)c2ccccc21 [Compound 15, reference compound]
- blue-shift of fluorescence emission during photobleaching due to dealkylation [2]: 9 nm

SMILES: [2H]C1([2H])N(c2ccc3c(-c4ccccc4C(=O)[O-])c4ccc(=[N+]5C([2H])([2H])C([2H])([2H])C5([2H])[2H])cc-4oc3c2)C([2H])([2H])C1([2H])[2H] [Compound 16, 2-(3,6-Bis(azetidin-1-yl-d6)xanthylium-9-yl)benzoate]
- extinction coefficient (ε) compared to nondeuterated parent [1]: no improvement
- fluorescence quantum yield (Φ) compared to nondeuterated parent [1]: no improvement
- photobleaching / in vitro photostability compared to nondeuterated parent [2]: no improvement
- blue-shift of fluorescence emission during photobleaching due to dealkylation [2]: 4 nm
- singlet oxygen (1O2) quantum yield compared to nondeuterated parent [3]: significantly lower

SMILES: [2H]C1([2H])N(c2ccc3c(-c4ccccc4C(=O)[O-])c4ccc(=[N+]5C([2H])([2H])C([2H])([2H])C([2H])([2H])C5([2H])[2H])cc-4oc3c2)C([2H])([2H])C([2H])([2H])C1([2H])[2H] [Compound 18, 2-(3,6-Bis(pyrrolidin-1-yl-d8)xanthylium-9-yl)benzoate]
- absorption and emission maxima / spectral shape compared to nondeuterated parent [1]: no change in spectral shape
- intrinsic brightness (ε×Φ) [1]: equivalent brightness
- extinction coefficient (ε) compared to nondeuterated parent [1]: increases
- fluorescence quantum yield (Φ) compared to nondeuterated parent [1]: increases
- chromostability during bleaching [2]: higher
- photobleaching / in vitro photostability compared to nondeuterated parent [2]: improved in vitro photostability

SMILES: [2H]C1([2H])N(c2ccc3c(-c4cc(C(=O)NCCOCCOCCCCCCCl)ccc4C(=O)[O-])c4ccc(=[N+]5C([2H])([2H])C([2H])([2H])C5([2H])[2H])cc-4oc3c2)C([2H])([2H])C1([2H])[2H] [Compound 24, 2-(3,6-Bis(azetidin-1-yl-d6)xanthylium-9-yl)-4-((2-(2-((6-chlorohexyl)oxy)ethoxy)ethyl)carbamoyl)benzoate]
- fluorescence quantum yield of HaloTag conjugate compared to nondeuterated ligand (HaloTag protein [4]): higher
- 1O2 generation of HaloTag-bound ligand compared to nondeuterated ligand (HaloTag protein [5]): significantly suppressed
- fluorescence lifetime (τ) of HaloTag conjugate in cells compared to nondeuterated ligand (histone H2B-HaloTag): longer
- labeling of HaloTag-histone H2B fusions in living cells [6]: could label
- photostability in cells (average track length of individual molecules) (Sox2-HaloTag fusions): no improvement
- brightness in cells (photons/s) (Sox2-HaloTag fusions): higher brightness

SMILES: [2H]C1([2H])N(c2ccc3c(-c4cc(C(=O)NCCOCCOCCCCCCCl)ccc4C(=O)[O-])c4ccc(=[N+]5C([2H])([2H])C([2H])([2H])C([2H])([2H])C5([2H])[2H])cc-4oc3c2)C([2H])([2H])C([2H])([2H])C1([2H])[2H] [Compound 25, 2-(3,6-Bis(pyrrolidin-1-yl-d8)xanthylium-9-yl)-4-((2-(2-((6-chlorohexyl)oxy)ethoxy)ethyl)carbamoyl)benzoate]
- labeling of HaloTag-histone H2B fusions in living cells [6]: excellent live-cell label
- photostability in cells (average track length of individual molecules) (Sox2-HaloTag fusions): significantly longer tracks
- brightness in cells (photons/s) (Sox2-HaloTag fusions): higher brightness

SMILES: [2H]C1([2H])N(c2ccc3c(c2)[Si](C)(C)C2=CC(=[N+]4C([2H])([2H])C([2H])([2H])C4([2H])[2H])C=CC2=C3c2ccccc2C(=O)[O-])C([2H])([2H])C1([2H])[2H] [Compound 31, 2-(3,7-Bis(azetidin-1-yl-d6)-5,5-dimethyldibenzo[b,e]silin-10-ylium-10(5B)-yl)benzoate]
- intrinsic brightness (ε×Φ) [1]: increase
- extinction coefficient (ε) compared to nondeuterated parent [1]: modestly increased
- fluorescence quantum yield (Φ) compared to nondeuterated parent [1]: did not elicit a large increase

SMILES: [2H]C1([2H])N(c2ccc3c(c2)[Si](C)(C)C2=CC(=[N+]4C([2H])([2H])C([2H])([2H])C([2H])([2H])C4([2H])[2H])C=CC2=C3c2ccccc2C(=O)[O-])C([2H])([2H])C([2H])([2H])C1([2H])[2H] [Compound 33, 2-(5,5-Dimethyl-3,7-bis(pyrrolidin-1-yl-d8)dibenzo[b,e]silin-10-ylium-10(5H)-yl)benzoate]
- extinction coefficient (ε) compared to nondeuterated parent [1]: substantial increase
- fluorescence quantum yield (Φ) compared to nondeuterated parent [1]: substantial increase

SMILES: [2H]C1([2H])N(c2ccc3c(c2)[Si](C)(C)C2=CC(=[N+]4C([2H])([2H])C([2H])([2H])C4([2H])[2H])C=CC2=C3c2cc(C(=O)NCCOCCOCCCCCCCl)ccc2C(=O)[O-])C([2H])([2H])C1([2H])[2H] [Compound 37, 2-(3,7-Bis(azetidin-1-yl-d6)-5,5-dimethyldibenzo[b,e]silin-10-ylium-10(51)-yl)-4-((2-(2-((6-chlorohexyl)oxy)ethoxy)ethyl)carbamoyl)benzoate]
- fluorescence quantum yield of HaloTag conjugate compared to nondeuterated ligand (HaloTag protein [4]): substantial increase
- 1O2 generation of HaloTag-bound ligand compared to nondeuterated ligand (HaloTag protein [5]): lower
- fluorescence lifetime (τ) of HaloTag conjugate in cells compared to nondeuterated ligand (histone H2B-HaloTag): increased
- labeling of HaloTag-histone H2B fusions in living cells [6]: suitable labels
- photostability in cells (average track length of individual molecules) (Sox2-HaloTag fusions): more photostable
- brightness in cells (photons/s) (Sox2-HaloTag fusions): higher brightness

SMILES: [2H]C1([2H])N(c2ccc3c(c2)[Si](C)(C)C2=CC(=[N+]4C([2H])([2H])C([2H])([2H])C([2H])([2H])C4([2H])[2H])C=CC2=C3c2cc(C(=O)NCCOCCOCCCCCCCl)ccc2C(=O)[O-])C([2H])([2H])C([2H])([2H])C1([2H])[2H] [Compound 38, 4-((2-(2-((6-Chlorohexyl)oxy)ethoxy)ethyl)carbamoyl)-2-(5,5-dimethyl-3,7-bis(pyrrolidin-1-yl-d8)dibenzo[b,e]silin-10-ylium-10(5H)-yl)benzoate]
- labeling of HaloTag-histone H2B fusions in living cells [6]: improved cellular labeling
- photostability in cells (average track length of individual molecules) (Sox2-HaloTag fusions): more photostable; also recorded: longest average single-molecule track length
- brightness in cells (photons/s) (Sox2-HaloTag fusions): highest photons/s

SMILES: [2H]C1([2H])N(c2ccc3nc4ccc(=[N+]5C([2H])([2H])C([2H])([2H])C([2H])([2H])C5([2H])[2H])cc-4oc3c2)C([2H])([2H])C([2H])([2H])C1([2H])[2H] [Compound 44, 3,7-Bis(pyrrolidin-1-yl-d8)phenoxazin-5-ium trifluoroacetate]
- fluorescence quantum yield (Φ) compared to nondeuterated parent [1]: substantial increase
